Reference: ChEMBL document CHEMBL3621141, “Discovery of indole-based tetraarylimidazoles as potent inhibitors of urease with low antilipoxygenase activity” (Eur J Med Chem, 2015)

Columns and labels:
Glycine max = assay: Inhibition of soybean LOX using linoleic acid as substrate at 0.5 mM preincubated for 10 mins followed by substrate addition measured after 6 mins by spectrophotometric analysis
[1] = Inhibition of soybean LOX using linoleic acid as substrate preincubated for 10 mins followed by substrate addition measured after 6 mins by spectrophotometric analysis; design: species or system Glycine max
Urease = Urease (Canavalia ensiformis, UniProt P07374); assay: Inhibition of jack beans urease assessed as hydrolysis of urea into ammonia preincubated for 10 mins followed by urea addition measured after 10 mins by Berthelot assay
Sequence of Urease (P07374 whole entry): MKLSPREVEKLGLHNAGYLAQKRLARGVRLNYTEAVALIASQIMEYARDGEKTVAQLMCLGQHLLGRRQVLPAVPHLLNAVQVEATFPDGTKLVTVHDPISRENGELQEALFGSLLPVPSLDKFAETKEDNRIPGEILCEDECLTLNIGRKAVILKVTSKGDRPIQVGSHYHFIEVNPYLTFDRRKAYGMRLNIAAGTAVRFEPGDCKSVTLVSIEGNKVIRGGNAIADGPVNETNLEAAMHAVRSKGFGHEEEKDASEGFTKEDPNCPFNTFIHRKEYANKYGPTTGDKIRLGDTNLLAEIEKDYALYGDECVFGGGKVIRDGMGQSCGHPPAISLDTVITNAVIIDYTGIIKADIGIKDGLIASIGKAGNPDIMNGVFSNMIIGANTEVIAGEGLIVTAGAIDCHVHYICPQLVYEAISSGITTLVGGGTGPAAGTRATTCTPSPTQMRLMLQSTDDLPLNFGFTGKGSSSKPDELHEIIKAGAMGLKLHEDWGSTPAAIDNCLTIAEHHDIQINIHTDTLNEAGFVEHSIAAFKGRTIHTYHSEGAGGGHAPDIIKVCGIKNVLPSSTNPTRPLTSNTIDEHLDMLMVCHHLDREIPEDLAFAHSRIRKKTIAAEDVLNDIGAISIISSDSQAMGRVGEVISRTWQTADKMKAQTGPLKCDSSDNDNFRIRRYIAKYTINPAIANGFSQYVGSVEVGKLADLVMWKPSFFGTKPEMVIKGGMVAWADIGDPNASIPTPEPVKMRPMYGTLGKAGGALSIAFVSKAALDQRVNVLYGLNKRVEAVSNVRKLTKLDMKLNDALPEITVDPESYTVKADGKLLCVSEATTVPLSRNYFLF

[2] = molecular target: Urease (Canavalia ensiformis) (UniProt P07374); assay: Inhibition of jack beans urease assessed as hydrolysis of urea into ammonia at 0.5 mM preincubated for 10 mins followed by urea addition measured after 10 mins by Berthelot assay
Sequence of Urease (Canavalia ensiformis) (P07374 whole entry, looked up): as the sequence (P07374 whole entry) above

Structure (SMILES): Clc1ccc(-n2c(-c3c(-c4ccccc4)[nH]c4ccc(Br)cc34)nc(-c3ccccc3)c2-c2ccccc2)cc1
- inhibition (Glycine max): 83.2%
- IC50 [1]: 101 µM
- IC50 (Urease): 4.66 µM
- inhibition [2]: 87.8%

Structure (SMILES): FC(F)(F)c1ccc(-c2[nH]c3ccccc3c2-c2nc(-c3ccccc3)c(-c3ccccc3)n2-c2ccc(Cl)cc2)cc1
- inhibition (Glycine max): 62.1%
- IC50 [1]: 215 µM
- IC50 (Urease): 4.75 µM
- inhibition [2]: 70.3%

Structure (SMILES): Cc1ccc(-n2c(-c3c(-c4ccccc4)[nH]c4ccc(Br)cc34)nc(-c3ccccc3)c2-c2ccccc2)cc1
- inhibition (Glycine max): 81.4%
- IC50 [1]: 143 µM

Structure (SMILES): Brc1ccc(-c2[nH]c3ccccc3c2-c2nc(-c3ccccc3)c(-c3ccccc3)n2-c2ccccc2)cc1
- inhibition (Glycine max): 59.3%
- IC50 [1]: 197 µM
- IC50 (Urease): 4.81 µM
- inhibition [2]: 89.4%

Structure (SMILES): Brc1ccc(-n2c(-c3c(-c4ccccc4)[nH]c4ccc(Br)cc34)nc(-c3ccccc3)c2-c2ccccc2)cc1
- inhibition (Glycine max): 78.5%
- IC50 [1]: 178 µM
- IC50 (Urease): 0.15 µM
- inhibition [2]: 93.2%

Structure (SMILES): Brc1ccc(-c2[nH]c3ccccc3c2-c2nc(-c3ccccc3)c(-c3ccccc3)n2-c2ccc(Br)cc2)cc1
- inhibition (Glycine max): 61.1%
- IC50 [1]: 173 µM
- IC50 (Urease): 11.3 µM
- inhibition [2]: 87.8%

Structure (SMILES): COc1ccc(-n2c(-c3c(-c4ccccc4)[nH]c4ccc(Br)cc34)nc(-c3ccccc3)c2-c2ccccc2)cc1
- inhibition (Glycine max): 57.5%
- IC50 [1]: 265 µM
- IC50 (Urease): 4.62 µM
- inhibition [2]: 88.7%

Structure (SMILES): Fc1ccc(-n2c(-c3c(-c4ccc(Cl)cc4)[nH]c4ccccc34)nc(-c3ccccc3)c2-c2ccccc2)cc1
- inhibition (Glycine max): 84.5%
- IC50 [1]: 89 µM
- IC50 (Urease): 0.44 µM
- inhibition [2]: 85.6%

Structure (SMILES): Brc1ccc2[nH]c(-c3ccccc3)c(-c3nc(-c4ccccc4)c(-c4ccccc4)n3-c3ccccc3)c2c1
- inhibition (Glycine max): 97.2%
- IC50 [1]: 134 µM

Structure (SMILES): O=c1cc(-c2ccccc2)oc2cc(O)c(O)c(O)c12 [BAICALEIN]
- inhibition (Glycine max): 93.7%
- IC50 [1]: 22.4 µM

Structure (SMILES): Clc1ccc(-c2[nH]c3ccccc3c2-c2nc(-c3ccccc3)c(-c3ccccc3)n2-c2ccccc2)cc1
- inhibition (Glycine max): 58.3%
- IC50 [1]: 276 µM
- IC50 (Urease): 0.37 µM
- inhibition [2]: 80.3%

Structure (SMILES): Fc1ccc(-n2c(-c3c(-c4ccc(C(F)(F)F)cc4)[nH]c4ccccc34)nc(-c3ccccc3)c2-c2ccccc2)cc1
- inhibition (Glycine max): 80.2%
- IC50 [1]: 106 µM
- IC50 (Urease): 0.16 µM
- inhibition [2]: 85.2%

Structure (SMILES): FC(F)(F)c1ccc(-c2[nH]c3ccccc3c2-c2nc(-c3ccccc3)c(-c3ccccc3)n2-c2ccccc2)cc1
- inhibition (Glycine max): 86.2%
- IC50 [1]: 117 µM

Structure (SMILES): COc1ccc(-n2c(-c3c(-c4ccc(Br)cc4)[nH]c4ccccc34)nc(-c3ccccc3)c2-c2ccccc2)cc1
- inhibition (Glycine max): 61.7%
- IC50 [1]: 206 µM
- IC50 (Urease): 29.1 µM
- inhibition [2]: 85.2%

Structure (SMILES): Cc1ccc(-n2c(-c3c(-c4ccc(C(F)(F)F)cc4)[nH]c4ccccc34)nc(-c3ccccc3)c2-c2ccccc2)cc1
- inhibition (Glycine max): 90.3%
- IC50 [1]: 83 µM
- IC50 (Urease): 0.12 µM
- inhibition [2]: 79.7%

Structure (SMILES): Fc1ccc(-n2c(-c3c(-c4ccc(Br)cc4)[nH]c4ccccc34)nc(-c3ccccc3)c2-c2ccccc2)cc1
- inhibition (Glycine max): 87.8%
- IC50 [1]: 162 µM
- IC50 (Urease): 12.1 µM
- inhibition [2]: 86.7%
